Source: patent US8524747B2, “Pharmaceutical compositions” (Keio University, priority 2008, dated 2013)

Key:
RAW264.7 cells [1] = experiment: Cytotoxicity on RAW264.7 cells: cell survival rate (trypan blue) and total cell number; type: cell-based; settings: after 48 hours
Procedure: In this example, cytotoxicity of DTCM glutarimide on RAW264.7 cells was evaluated, based on cell survival rate and cell growth rate.
The RAW264.7 cells were seeded on plastic dishes at 1×10^4 cells/ml in DMEM medium containing 10% FBS, to which DTCM glutarimide-C12 was added at the concentration of 0, 0.1, 0.3, 1.0, 3.0 or 10.0 μg/mL to the media. After 24 hours or 48 hours of culture, numbers of total cells were counted using hemacytometer, and numbers of living cells were counted using trypan blue dye exclusion assay.

RAW264.7 cells [2] = experiment: Inhibition of synthesis of DNA, RNA and protein (3H-thymidine, uridine, leucine incorporation); type: cell-based; settings: concentrations up to 10.0 μg/mL, 6 hours + 1 hour label
Procedure: In this example, the cytotoxicity of DTCM glutarimide on RAW264.7 cells was evaluated, based on the inhibition of synthesis of DNA, RNA and protein.
After RAW264.7 cells were cultured under the same conditions as in (2) with the media supplemented with DTCM glutarimide-C12 at concentrations (0, 0.1, 0.3, 1.0, 3.0 and 10.0 μg/mL) for 6 hours, ^3H-labeled 0.1% thymidine, 0.1% uridine and 0.1% leucine were added to the media and the cells were further cultured for 1 hour. The cells were recovered and radioactivity of TCA-insoluble fractions was measured by using a liquid scintillation counter. The counts obtained at the DTCM glutarimide-C12 concentrations were normalized by setting to 100 the count obtained without addition of DTCM glutarimide-C12 in a control experiment and relatively plotted in the graph shown in FIG. 3.

NO production = NO production by LPS-activated macrophages (Griess reaction); type: cell-based; settings: RAW264.7 cells
Procedure: After RAW264.7 cells were cultured under the same conditions as in (2) with the media supplemented with DTCM glutarimide-C12 at concentrations (0, 0.1, 0.3, 1.0 and 3.0 μg/mL) for 2 hours, 3.0 μg/mL of LPS was added to the media and the cells were further cultured for 20 hours. Then, NO production amounts were measured by Griess reaction and plotted against the respective DTCM glutarimide-C12 concentrations (the bar graph in FIG. 4).

RAW264.7 cells [3] = experiment: Living cell count by MTT method in LPS-stimulated cells; type: cell-based; settings: all concentrations 0.1-3.0 μg/mL, 20 hours
iNOS = iNOS expression in macrophage activation (Western blotting); type: cell-based; settings: RAW264.7 cells, LPS
Procedure: RAW264.7 cells were activated under the same conditions as in (4), the cells were recovered and proteins were extracted from the cells by a routine method. Western blotting was conducted, using an anti-iNOS antibody (Santa Cruz Biotechnology) and an anti-α-tubulin antibody (Sigma Aldrich Japan) at the dilution ratio of 1/3000.

COX-2 = COX-2 expression in macrophage activation (Western blotting); type: cell-based; settings: RAW264.7 cells, LPS
Procedure: RAW264.7 cells were activated under the same conditions as in (4), the cells were recovered, proteins were extracted from the cells in a routine method, and Western blotting was conducted using an anti-COX-2 antibody (BD Bioscience) and an anti-α-tubulin antibody (Sigma Aldrich Japan) at the dilution ratio of 1/3000.

IL-6 = IL-6 production by macrophage activation (ELISA); type: cell-based; settings: RAW264.7 cells, LPS
Procedure: RAW264.7 cells were activated under the same conditions as in (4), the cells were recovered, proteins were extracted from the cells by a routine method. An ELISA was conducted using 96-well polystyrene microplates onto which the anti-IL-6 antibody had been immobilized. […] The detected concentrations of IL-6 per 10^6 cells were plotted in FIG. 9.

NF-κB = experiment: DNA binding ability of NF-κB (gel shift assay); type: cell-based; settings: RAW264.7 cells
Procedure: Next, under the same conditions as in (2) above, RAW264.7 cells were cultured with the media supplemented with DTCM glutarimide-C12 at concentrations (0, 0.1, 0.3, 1.0 and 3.0 μg/mL) for 2 hours, to which 3.0 μg/mL of LPS was added, and the cells were further cultured for 30 minutes. Then, nuclear extracts were prepared by a routine method, and a gel shift assay was conducted with using 3 μL of a ^32P-labeled probe.
The probe was prepared as follows. First, 4 μL of 1.75 μmol/mL oligonucleotide (Promega Inc.) (5′-[…]-3′; SEQ ID N0.1), 4 μL of 10×T4 PNK buffer (Takara) and 10 μL of nucleotide free water were mixed, to which 2 μL of [γ-^32P]-ATP (Amarsham Corp.) was added, and incubated at 37° C. for 10 minutes. The reaction was then terminated by addition of 80 μL of TE buffer (10 mM Tris-HCl:1 mM EDTA=1:1). 100 μL of the reaction solution was loaded onto a Nick Column (Amersham Corp.) which had been prepared by removing the filled TE buffer and washing with distilled water, 400 μL of distilled water was loaded, and the eluate from the column was recovered in a 1.5 mL Eppendorf tube. Additional 400 μL of distilled water was loaded, and the fraction eluted again from the column was recovered in the 1.5 mL Eppendorf tube. The elute thus obtained was used as the labeled DNA probe. […]

[4] = tested on: murine bone marrow-derived macrophages; experiment: Toxicity on murine bone marrow-derived macrophages (trypan blue dye exclusion); type: cell-based, mouse
Procedure: An 8 week-old ICR mouse (male, purchased from Charles River) sacrificed by cervical dislocation was dissected under sterile conditions to isolate femora and […] from both legs. Medullary cavities were washed with α-MEM several times using a 21G needle attached to a 1 mL syringe. The fluid (α-MEM) after washing was filtrated through a nylon mesh (330 mesh) to remove unnecessary cells, and myelocytes were isolated. The myelocyte suspension in α-MEM thus obtained was diluted to 1.25 to 3.75×10^6 cell/mL. To 80 mL of the myelocyte suspension, 80 μL of hM-CSF (Wako Pure Chemical) at 10 μg/mL prepared with PBS containing 0.1% BSA was added (final concentration 10 ng/mL). The cells thus prepared were seeded onto 24-well plates (Corning Inc.) by 500 μL to 1 mL per well, and cultured at 37° C. under 5% CO2 for 2 days. Then, unattached cells were washed away with α-MEM, fresh α-MEM containing 10 ng/mL of hM-CSF was added, and the attached cells thus obtained were used as the murine bone marrow-derived macrophages.
The murine bone marrow-derived macrophages thus prepared were seeded onto 24-well plates (Corning Inc.) by 1 mL each (1.25 to 3.75×10^6 cell/mL). To each of the wells, DTCM glutarimide-C12 at respective concentrations of 1.0, 3.0, 10.0 and 30.0 μg/mL was added, and all the experimental groups were cultured at 37° C. under 5% CO2. The control group was cultured under the same condition but without addition of DTCM glutarimide-C12.
The cells in the experimental groups were detached using a cell scraper and dissolved in α-MEM at 24 hours, 48 hours and 72 hours after the addition of DTCM glutarimide-C12. Then 1 mL of the cell suspensions were recovered in fresh Eppendorf tubes. […] 10 μL of the cell suspensions was put onto a hemacytometer (Erma Inc.) and total cells and dead cells were counted under a microscope at 100× magnification. In hemacytometric counting, approximately 100 cells were counted per one visual field, and the cell survival rates obtained in four visual fields were averaged. The cell survival rate (%) was calculated according to the following formula. […]

[5] = tested on: murine bone marrow-derived macrophages; experiment: RANKL-induced osteoclast differentiation of murine bone marrow-derived macrophages (TRAP staining); type: cell-based, mouse; settings: 0.3, 1.0 and 3.0 μg/mL, RANKL 100 ng/mL, 5 days
Procedure: The primary murine bone marrow-derived macrophages prepared in Example (10) were plated onto 24-well plates (Corning Inc.) by 500 μL each (1.25 to 3.75×10^6 cell/mL). Then 5 μL of DTCM glutarimide-C12 was added to each of the wells to the final concentrations of 0, 0.3, 1.0 and 3.0 μg/mL. All the experimental groups of plates were cultured at 37° C. under 5% CO2 for 2 hours. hRANKL (Wako Pure Chemical) at 10 μg/mL prepared in PBS containing 0.1% BSA was then added by 5 μL each (final concentration 100 ng/mL), and culture was continued. RANKL has been known as a factor to induce osteoclasts differentiation of macrophages etc. (Kobayashi et al. Crit. Rev Eukaryot Gene Expr. 19(1), 61-72, 2009). The control group of plates was cultured under the same condition but without RANKL and DTCM glutarimide.
After 5 days of culture, the media were removed, and the cells were washed by PBS. 250 μL each of 3.5% paraformaldehyde was added to the wells to fix the cells for 5 minutes, and the fixative was washed away with PBS. […] Following an addition of 250 μL of PBS, the plates were observed under a microscope and the number of mature osteoclasts was counted in the entire visual field by regarding TRAP-positive cell having three or more fused nuclei as the mature osteoclast as it is known to be TRAP-positive.

F9 cells = experiment: Survival rate and growth of F9 cancer cells; type: cell-based, murine
Procedure: F9 cells derived from murine embryonic tumor cells (purchased from RIKEN Tsukuba Institute BioResource Center, Cell Engineering Division) were plated onto plastic dishes at 1×10^4 cell/mL in DMEM medium containing 15% FBS. DTCM glutarimide-C12 was then added at the concentration of 0, 0.1, 0.3, 1.0, 3.0, 10.0 or 30.0 μg/mL in the culture media, and were cultured for 24, 48 or 72 hours. By following the same method as described in “Measurement of Cell Survival Rate by Trypan Blue Staining” in Example (10), the survival rates of cells were measured. Also, suspensions of the cultured cells were similarly prepared and the numbers of cells in the suspensions were counted by Coulter Counter (Beckman Coulter Inc.) to evaluate cell growth.

[6] = 0.1-3.0 μg/mL, 2 hours pretreatment, LPS 3.0 μg/mL, 20 hours
[7] = 10 μg/mL, positive control, LPS

For `CCCCCCCCCCCCSC(=O)CC1CC(=O)NC(=O)C1` [DTCM glutarimide-C12], the “total cell number (cell growth)” value (RAW264.7 cells [1]; concentrations up to 1.0 μg/mL) was “no suppression of cell growth was detected”, the “cell survival rate (living cell number/total cell number)” value (RAW264.7 cells [1]; concentrations up to 3.0 μg/mL) was “no cell killing effect was detected” and the “inhibition of synthesis of DNA, RNA and protein” value (RAW264.7 cells [2]) was “no significant inhibitory activity”. The NO production (NO production; [6]) was “significantly suppressed this NO production in a concentration-dependent manner”, the “numbers of living cells (MTT), cell growth” value (RAW264.7 cells [3]) was “did not affect the cell growth” and the iNOS expression (iNOS; 0.1-3.0 μg/mL) was “prominently suppressed this iNOS expression in a concentration-dependent manner”. The COX-2 expression (COX-2; 0.1-3.0 μg/mL) was “prominently suppressed this COX-2 expression in a concentration-dependent manner”, the IL-6 production (IL-6; concentrations below 3.0 μg/mL) was “did not affect this IL-6 production” and the “DNA binding ability of NF-κB” value (NF-κB; concentrations below 3.0 μg/mL, LPS 30 minutes) was “did not suppress the DNA binding ability of NF-κB”. The survival rate ([4]; 3.0 μL groups, regardless of culture time (24, 48, 72 hours)) was “more than 80%”, the survival rate ([4]; 10.0 and 30.0 μg/mL groups, regardless of culture time) was “reduced” and the “toxicity on murine myelocyte-derived macrophages” value ([4]; concentrations up to 3.0 μL) was “does not exhibit toxicity”. For the same molecule, the number of osteoclasts [5] was “significantly reduced”, the “cell survival rate of F9 cells” value (F9 cells; 0.1-30.0 μg/mL, 24, 48 or 72 hours, depending on concentration) was “significantly reduced” and the “cell growth of F9 cells” value (F9 cells; 0.1-30.0 μg/mL, 24-72 hours, versus group without addition) was “suppressed”. The “cell survival rate of F9 cells, 72-hour versus 24-hour and 48-hour culturing” value (F9 cells; 10 or 30 μg/mL) was “significantly reduced cell survival rate”.
For `O=C(NC1=CC(=O)[C@H]2O[C@H]2[C@H]1O)c1ccccc1O` [(−)-DHMEQ, reference compound], the NO production (NO production; [7]) was “NO expression is suppressed”, the iNOS expression (iNOS; 10 μg/mL, control) was “iNOS expression is suppressed” and the COX-2 expression (COX-2; 10 μg/mL, positive control) was “COX-2 expression is suppressed”. For the same molecule, the IL-6 production (IL-6; 10 μg/mL, positive control) was “IL-6 production is suppressed” and the “activity of NF-κB (DNA binding)” value (NF-κB; [7]) was “the activity of NF-κB is suppressed”.
With `CCCCCCSC(=O)CC1CC(=O)NC(=O)C1` [DTCM glutarimide-C6] the NO production (NO production; [6]) was “suppresses NO production” and the NO production (NO production; 0.1-3.0 μg/mL, 2 hours pretreatment, LPS 3.0 μg/mL, 20 hours, listed as DTCM glutarimide-C16) was “almost the same results”.
